Measured values published in patent publication US6730687B1, “Substituted benzylthiazolidine-2, 4-dione derivatives” (Kyorin Pharmaceutical Co., Ltd., priority 1999, dated 2004).
Like-named read-outs stand apart in the source and are kept apart here.

Assays:
[1] = target: T1, ligand-binding domain of human type PPARα (Homo sapiens, UniProt Q07869); assay: Test of transactivation on peroxisome proliferator-activated receptor (CHO cells, reporter plasmid), PPARα
T1 sequence (Q07869 239-466 limits assumed): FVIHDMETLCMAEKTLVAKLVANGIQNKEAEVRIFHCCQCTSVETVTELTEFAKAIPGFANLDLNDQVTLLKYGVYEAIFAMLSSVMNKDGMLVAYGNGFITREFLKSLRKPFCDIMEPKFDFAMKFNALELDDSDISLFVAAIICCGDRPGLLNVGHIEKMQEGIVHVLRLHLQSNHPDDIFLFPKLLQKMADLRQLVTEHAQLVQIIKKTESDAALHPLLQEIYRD
Description: (§1) After 24 hours, CAT activity and β-galactosidase activity were measured.

[2] = target: T2, ligand-binding domain of human type PPARγ (Homo sapiens, UniProt P37231); assay: Test of transactivation on peroxisome proliferator-activated receptor (CHO cells, reporter plasmid), PPARγ
T2 sequence (P37231 238-503 limits assumed): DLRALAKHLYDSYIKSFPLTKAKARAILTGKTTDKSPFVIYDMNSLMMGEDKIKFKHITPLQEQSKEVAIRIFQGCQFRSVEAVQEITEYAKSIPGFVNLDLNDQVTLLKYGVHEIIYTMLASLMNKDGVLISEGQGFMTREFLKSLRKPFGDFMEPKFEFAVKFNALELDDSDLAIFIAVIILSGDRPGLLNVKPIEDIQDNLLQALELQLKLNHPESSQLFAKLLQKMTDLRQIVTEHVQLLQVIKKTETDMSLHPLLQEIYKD
Description: as §1

[3] = read-out: Transactivation action PPARα EC50, CHO cells cotransfected with receptor and reporter plasmids, 24 hours, CAT activity, β-galactosidase internal standard

melting point | EC50 [1] | EC50 [2] | SMILES | EC50 [1, 3] | EC50 ([2]; read-out: Transactivation action PPARγ EC50, CHO cells cotransfected with receptor and reporter plasmids, 24 hours, CAT activity, β-galactosidase internal standard)
– | – | – | CCCCC/C=C\C/C=C\C=C\[C@@H](O)C/C=C\CCCC(=O)O [(8S)-HETE, reference compound] | 1300 nM | –
– | – | – | COc1ccc(CC2SC(=O)NC2=O)cc1CC(=O)Nc1ccc(C(F)(F)F)cc1 (stereo not shown) [Example 6, N-[4-(Trifloromethyl)phenyl]-2-[5-[(2,4-dioxothiazolidin-5-yl)methyl]2-methoxyphenyl]acetamide] | 600 nM | 3300 nM
202 to 204 °C | 550 nM | 430 nM | COc1ccc(CC2SC(=O)NC2=O)cc1NC(=O)Nc1ccc(C(F)(F)F)cc1 (stereo not shown) [Example 11, 5-[[4-Methoxy-3-[3-[4-(trifluoromethyl)phenyl]ureido]phenyl]methyl]thiazolidinex-2,4-dione] | – | –
147 to 149 °C | 860 nM | 1100 nM | COc1ccc(CC2SC(=O)NC2=O)cc1NC(=O)Cc1ccc(C(F)(F)F)cc1 (stereo not shown) [Example 15, N-[2-Methoxy-5-[(2,4-dioxothiazolidin-5-yl)methyl]phenyl]-2-[4-(trifluoromethyl)phenyl]acetamide] | – | –
103 to 104.5 °C | 800 nM | 400 nM | COc1ccc(CC2SC(=O)NC2=O)cc1C(=O)CCc1ccc(C(F)(F)F)cc1 (stereo not shown) [Example 22, 5-[[3-[3-[4-(Trifluoromethyl)phenyl]propanoyl]-4-methoxynhenyl]methyl]thiazolidine-2,4-dione] | – | –
82 to 84 °C | – | – | COc1ccc(CC2SC(=O)NC2=O)cc1CC(=O)Nc1ccc(Oc2ccccc2)cc1 (stereo not shown) [Example 23, N-[4-(Phenoxy)phenyl]-2-[5-[(2,4-dioxothiazolidin-5-yl)methyl]-2-methoxyphenyl]acetamide] | – | –
